Reference: ChEMBL document CHEMBL4725311, “Discovery of potent, orally bioavailable in vivo efficacious antagonists of the TLR7/8 pathway” (Bioorg Med Chem Lett, 2020)

Key:
Toll-like receptor 9 [1] = biological target: T1, Toll-like receptor 9 (Mus musculus, UniProt Q9EQU3); assay: Antagonist activity at TLR9 in mouse splenocytes assessed as inhibition of CpG1585-induced IL6 production; type: cell-based, Splenocyte
T1 sequence (Q9EQU3 whole entry): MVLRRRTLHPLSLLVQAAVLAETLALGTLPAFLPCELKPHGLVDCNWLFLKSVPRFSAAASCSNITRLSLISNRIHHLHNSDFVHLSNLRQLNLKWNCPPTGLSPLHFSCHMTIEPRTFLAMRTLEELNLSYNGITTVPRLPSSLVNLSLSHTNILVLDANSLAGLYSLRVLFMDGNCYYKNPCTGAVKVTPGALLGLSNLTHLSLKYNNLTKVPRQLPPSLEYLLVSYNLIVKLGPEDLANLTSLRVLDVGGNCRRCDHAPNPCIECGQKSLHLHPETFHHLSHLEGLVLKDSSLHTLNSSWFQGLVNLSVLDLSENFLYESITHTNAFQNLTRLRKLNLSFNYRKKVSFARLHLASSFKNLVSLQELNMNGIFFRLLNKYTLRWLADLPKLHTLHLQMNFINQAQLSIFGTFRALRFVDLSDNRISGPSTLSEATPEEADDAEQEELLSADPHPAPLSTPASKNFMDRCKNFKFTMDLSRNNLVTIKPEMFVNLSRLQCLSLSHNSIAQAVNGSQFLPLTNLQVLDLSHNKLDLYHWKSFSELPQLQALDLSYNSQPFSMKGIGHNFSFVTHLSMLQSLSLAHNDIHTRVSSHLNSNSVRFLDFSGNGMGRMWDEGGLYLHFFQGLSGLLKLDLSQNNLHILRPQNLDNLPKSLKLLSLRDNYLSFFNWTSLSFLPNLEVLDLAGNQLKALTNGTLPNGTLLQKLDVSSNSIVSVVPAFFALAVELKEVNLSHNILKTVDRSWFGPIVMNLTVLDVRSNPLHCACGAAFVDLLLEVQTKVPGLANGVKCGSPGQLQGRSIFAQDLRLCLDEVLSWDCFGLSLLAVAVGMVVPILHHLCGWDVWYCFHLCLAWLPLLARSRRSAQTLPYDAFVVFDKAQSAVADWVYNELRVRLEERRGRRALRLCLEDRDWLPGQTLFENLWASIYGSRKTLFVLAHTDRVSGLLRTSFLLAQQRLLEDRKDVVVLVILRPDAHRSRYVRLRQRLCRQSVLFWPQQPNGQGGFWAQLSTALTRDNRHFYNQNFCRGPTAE

Toll-like receptor 9 [2] = biological target: T2, Toll-like receptor 9 (Homo sapiens, UniProt Q9NR96); assay: Antagonist activity at TLR9 in human PBMC assessed as inhibition of ODN2216-induced IFNalpha production; type: tissue-based
T2 sequence (Q9NR96 whole entry): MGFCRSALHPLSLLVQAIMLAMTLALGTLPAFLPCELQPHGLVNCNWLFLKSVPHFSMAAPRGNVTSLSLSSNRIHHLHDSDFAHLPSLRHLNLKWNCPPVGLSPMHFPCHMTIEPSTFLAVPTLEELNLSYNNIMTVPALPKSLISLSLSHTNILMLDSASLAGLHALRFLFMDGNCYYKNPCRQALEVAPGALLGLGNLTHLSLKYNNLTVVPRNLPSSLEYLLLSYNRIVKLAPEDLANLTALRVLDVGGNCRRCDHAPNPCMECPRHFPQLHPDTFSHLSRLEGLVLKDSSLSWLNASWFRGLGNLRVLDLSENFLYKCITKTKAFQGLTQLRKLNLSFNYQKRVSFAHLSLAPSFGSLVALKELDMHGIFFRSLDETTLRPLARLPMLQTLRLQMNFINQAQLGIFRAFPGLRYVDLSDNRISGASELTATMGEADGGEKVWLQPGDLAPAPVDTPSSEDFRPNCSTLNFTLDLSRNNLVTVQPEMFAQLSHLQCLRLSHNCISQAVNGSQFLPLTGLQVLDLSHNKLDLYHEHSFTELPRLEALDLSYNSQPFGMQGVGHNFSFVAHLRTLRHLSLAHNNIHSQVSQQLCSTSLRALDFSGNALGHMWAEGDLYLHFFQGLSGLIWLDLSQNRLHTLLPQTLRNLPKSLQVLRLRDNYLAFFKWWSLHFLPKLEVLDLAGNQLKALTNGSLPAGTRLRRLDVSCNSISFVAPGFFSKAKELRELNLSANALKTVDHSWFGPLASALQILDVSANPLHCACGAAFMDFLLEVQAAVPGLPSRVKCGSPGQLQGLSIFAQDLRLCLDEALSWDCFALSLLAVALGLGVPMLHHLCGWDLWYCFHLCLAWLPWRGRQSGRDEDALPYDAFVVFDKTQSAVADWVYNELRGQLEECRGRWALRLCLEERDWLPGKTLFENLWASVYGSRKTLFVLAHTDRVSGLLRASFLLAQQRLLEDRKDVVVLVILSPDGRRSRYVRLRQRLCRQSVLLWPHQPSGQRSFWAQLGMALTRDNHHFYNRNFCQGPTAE

Toll-like receptor 7 [3] = biological target: T3, Toll-like receptor 7 (Mus musculus, UniProt P58681); assay: Antagonist activity at TLR7 in mouse splenocytes assessed as inhibition of ssRNA40-induced IL6 production; type: cell-based, Splenocyte
T3 sequence (P58681 whole entry): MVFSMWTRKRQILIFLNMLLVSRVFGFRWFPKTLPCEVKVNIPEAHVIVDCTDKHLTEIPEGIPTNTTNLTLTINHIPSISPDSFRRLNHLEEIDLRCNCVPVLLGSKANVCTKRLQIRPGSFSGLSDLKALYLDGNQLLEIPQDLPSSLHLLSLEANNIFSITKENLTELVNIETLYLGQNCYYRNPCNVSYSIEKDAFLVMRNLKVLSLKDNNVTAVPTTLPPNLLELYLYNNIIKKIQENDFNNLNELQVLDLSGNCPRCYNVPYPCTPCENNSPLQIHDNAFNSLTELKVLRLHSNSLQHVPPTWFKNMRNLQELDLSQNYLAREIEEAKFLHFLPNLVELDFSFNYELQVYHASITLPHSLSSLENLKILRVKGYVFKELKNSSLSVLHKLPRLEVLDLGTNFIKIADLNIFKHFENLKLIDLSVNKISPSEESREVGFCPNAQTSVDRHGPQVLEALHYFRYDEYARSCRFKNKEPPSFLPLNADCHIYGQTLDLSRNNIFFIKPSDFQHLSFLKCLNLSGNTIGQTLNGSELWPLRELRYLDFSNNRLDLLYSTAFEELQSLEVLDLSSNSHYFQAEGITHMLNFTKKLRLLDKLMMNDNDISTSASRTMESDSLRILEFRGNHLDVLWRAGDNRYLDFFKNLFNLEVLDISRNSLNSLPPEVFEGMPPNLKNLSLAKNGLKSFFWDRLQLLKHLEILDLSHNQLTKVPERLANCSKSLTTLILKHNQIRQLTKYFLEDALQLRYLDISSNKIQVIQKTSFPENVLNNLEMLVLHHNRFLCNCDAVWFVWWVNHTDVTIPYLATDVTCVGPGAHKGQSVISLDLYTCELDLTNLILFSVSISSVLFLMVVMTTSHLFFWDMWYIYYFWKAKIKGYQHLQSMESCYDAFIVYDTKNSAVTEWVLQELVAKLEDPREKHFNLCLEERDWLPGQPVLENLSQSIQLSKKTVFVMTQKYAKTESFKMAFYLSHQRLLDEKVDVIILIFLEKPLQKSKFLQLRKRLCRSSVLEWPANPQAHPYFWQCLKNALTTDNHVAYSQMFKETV

[4] = Cmax in BALB/c mouse at 20 mg/kg, po; type: ADME, organism-based; set-up: route oral, dose 20 mg/kg; conditions: in vivo
[5] = Terminal half life in BALB/c mouse at 5 mg/kg, iv; type: ADME, organism-based; conditions: in vivo, read-out: beta t1/2 (converted)
[6] = Oral bioavailability in BALB/c mouse at 20 mg/kg; type: ADME, organism-based; conditions: in vivo
[7] = Volume of distribution at steady state in BALB/c mouse at 5 mg/kg, iv; type: ADME, organism-based; conditions: in vivo, read-out: Vdss
[8] = Clearance in BALB/c mouse at 5 mg/kg, iv; type: ADME, organism-based; conditions: in vivo
[9] = AUC in BALB/c mouse at 20 mg/kg, po; type: ADME, organism-based; set-up: dose 20 mg/kg; conditions: in vivo
Toll-like receptor 8 = biological target: T4, Toll-like receptor 8 (Homo sapiens, UniProt Q9NR97); assay: Antagonist activity at TLR8 in human THP-1 cells assessed as inhibition of resiquimod-induced TNFalpha production; type: cell-based
T4 sequence (Q9NR97 whole entry): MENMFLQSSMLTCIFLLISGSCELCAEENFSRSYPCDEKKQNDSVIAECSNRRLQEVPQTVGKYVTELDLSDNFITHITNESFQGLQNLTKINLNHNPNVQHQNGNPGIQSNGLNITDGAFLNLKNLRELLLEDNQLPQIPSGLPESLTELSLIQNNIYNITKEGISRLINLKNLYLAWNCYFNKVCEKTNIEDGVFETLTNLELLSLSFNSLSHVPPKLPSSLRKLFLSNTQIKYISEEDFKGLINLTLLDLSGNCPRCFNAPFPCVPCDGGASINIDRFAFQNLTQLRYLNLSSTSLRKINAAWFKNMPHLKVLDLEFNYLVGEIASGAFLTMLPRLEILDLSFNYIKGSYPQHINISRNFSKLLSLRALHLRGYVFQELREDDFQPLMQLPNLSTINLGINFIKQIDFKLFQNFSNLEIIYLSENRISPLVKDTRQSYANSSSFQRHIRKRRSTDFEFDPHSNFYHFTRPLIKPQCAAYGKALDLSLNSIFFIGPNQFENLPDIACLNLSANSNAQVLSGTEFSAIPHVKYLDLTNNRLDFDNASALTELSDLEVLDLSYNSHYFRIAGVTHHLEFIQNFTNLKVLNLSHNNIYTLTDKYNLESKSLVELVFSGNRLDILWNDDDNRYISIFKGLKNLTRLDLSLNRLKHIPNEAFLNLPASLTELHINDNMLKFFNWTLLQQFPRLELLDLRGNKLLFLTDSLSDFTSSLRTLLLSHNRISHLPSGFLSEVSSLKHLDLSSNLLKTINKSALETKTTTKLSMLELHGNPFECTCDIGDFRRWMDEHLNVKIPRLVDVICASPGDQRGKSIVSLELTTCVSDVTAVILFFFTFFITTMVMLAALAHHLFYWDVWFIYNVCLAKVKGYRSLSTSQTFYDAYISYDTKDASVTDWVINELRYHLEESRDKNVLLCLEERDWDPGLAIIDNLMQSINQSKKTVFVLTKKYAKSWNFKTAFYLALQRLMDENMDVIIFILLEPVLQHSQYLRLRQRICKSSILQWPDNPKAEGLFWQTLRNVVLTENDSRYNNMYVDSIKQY

Toll-like receptor 7 [10] = biological target: T3, Toll-like receptor 7; assay: Antagonist activity at TLR7 in mouse P4H1 cells assessed as inhibition of imiquimod-induced IL6 production; type: cell-based

Cn1nc(-c2ccc(OCC3CC4(CNC4)C3)c(F)c2)c2cnc(N)nc21
IC50 (Toll-like receptor 9 [1]): 1200 nM | IC50 (Toll-like receptor 9 [2]): 6500 nM

Cn1nc(-c2ccc(OC[C@H]3CC[C@H](N)CC3)c(F)c2)c2cnc(N)nc21
IC50 (Toll-like receptor 9 [1]): 1900 nM | IC50 (Toll-like receptor 7 [3]): 110 nM | IC50 (Toll-like receptor 9 [2]): 1400 nM

Cc1cc(-c2ccnc3[nH]ncc23)cnc1OCC12CCC(N)(CC1)CC2
Cmax [4]: 3.23 µM | half-life [5]: 4 h | bioavailability [6]: 75% | IC50 (Toll-like receptor 9 [1]): 1200 nM | Vd [7]: 5.1 L/kg | IC50 (Toll-like receptor 7 [3]): 4 nM | IC50 (Toll-like receptor 9 [2]): 1000 nM | clearance [8]: 23 mL/min/kg | AUC [9]: 29.6 µM·h | IC50 (Toll-like receptor 8): < 1 nM

CN1CCN(CCCOc2ccc(-c3nn(C)c4nc(N)ncc34)cc2F)CC1
IC50 (Toll-like receptor 9 [1]): 2000 nM | IC50 (Toll-like receptor 7 [10]): 170 nM | IC50 (Toll-like receptor 7 [3]): 2000 nM

Cc1cc(-c2ccc(OCC34CCC(N)(CC3)CC4)c(F)c2)c2cnc(N)nn12
IC50 (Toll-like receptor 9 [1]): 460 nM | IC50 (Toll-like receptor 7 [3]): 93 nM | IC50 (Toll-like receptor 9 [2]): 3400 nM

Cn1ncc2c(-c3ccc(OCC45CCC(N)(CC4)CC5)c(F)c3)nc(N)nc21
IC50 (Toll-like receptor 9 [1]): 800 nM | IC50 (Toll-like receptor 7 [3]): 300 nM | IC50 (Toll-like receptor 9 [2]): 3700 nM

Cc1cc(-c2ccnc3[nH]ncc23)cnc1OCC12CCC(O)(CC1)CC2
Cmax [4]: 4.37 µM | half-life [5]: 4.7 h | bioavailability [6]: 43% | IC50 (Toll-like receptor 9 [1]): > 10000 nM | Vd [7]: 3.1 L/kg | IC50 (Toll-like receptor 7 [3]): 55 nM | IC50 (Toll-like receptor 9 [2]): > 5000 nM | clearance [8]: 11 mL/min/kg | AUC [9]: 36.3 µM·h

Cn1nc(-c2ccc(OC[C@H]3CC[C@@H](N)CC3)c(F)c2)c2cnc(N)nc21
IC50 (Toll-like receptor 9 [1]): 1200 nM | IC50 (Toll-like receptor 7 [3]): 150 nM | IC50 (Toll-like receptor 9 [2]): 2200 nM
